The text below walks through data of patent publication US20260130924A1, “COMPOSITIONS AND METHODS OF TREATING SUBJECTS WITH BRCA1 MUTATION OR DEFICIENCY” (BOARD OF REGENTS, THE UNIVERSITY OF TEXAS SYSTEM, priority 2022, published 2026).

Entries after “also recorded” stand apart in the source; their conditions may differ.

Assay type in all cases: cell-based, human
One experiment has as its system NRF2 and GPX4. The experiment can be described thus: NRF2 and GPX4 protein levels (western blotting). The note with it: for GPX4 levels: BRCA1-mutant SUM149 cells. Here is the method:
Cell pellets were lysed using immunoprecipitation lysis buffer (Fisher Scientific) or NP-40 buffer containing complete mini protease inhibitors (Roche). Protein concentrations were detected by a Bicinchoninic Acid Protein Assay (Thermo Scientific) using a FLUOstar Omega microplate reader (BMG Labtech). Immunoprecipitation and Western blot analysis were conducted as previously described. The primary antibodies and concentrations used in the current study included the followed: GPX4 (1:1,000, MAB5457, R&D systems), BRCA1 (1:1,000, 14823, Cell Signaling), BRCA2 (1:1,000, MAB2476-SP, R&D Systems), DHODH (1:1,000, 14877-1-AP, Proteintech), ACSL4 (1:1,000, sc-271800, Santa Cruz), FSP1 (1:1,000, 20886-1-AP, Proteintech), VDAC1 (1:1,000, 66345-1-Ig, Proteintech), VDAC2 (1:1,000, 66388-1-Ig, Proteintech), VDAC3 (1:1,000, 55260-1-AP, Proteintech), SLC7A11 (1:1,000, 12691, Cell Signaling), NCOA4 (1:1,000, 66849, Cell Signaling), vinculin (1:10000; […], Sigma), β-actin (1:1,000, 3700, Cell Signaling), LC3B (1:5000, 3868, Cell Signaling), 53BP1 (1:5000, NB100-304, Novus Biologicals), E-Cadherin (1:1000, 3195, Cell Signaling), and tubulin (1:5000, 2144, Cell Signaling).
For orientation: Immunoblotting shows a protein as a band on a membrane.

A further experiment relates to SUM149 and HS578T cells. As to the kind of experiment: ROS-related cell death in SUM149 and HS578T cells (cell viability). As to the method: (§1) Viable cells were measured using Cell Counting Kit-8 (CCK-8, Dojindo) as previously described. Briefly, cells were seeded onto 96-well plates and subsequently treated with indicated agents. Next, cells were exposed to 10 μL of CCK-8 reagent (100 μL of medium per well) for 1 hour at 37° C. with 5% CO2 in an incubator. The absorbance at a wavelength of 450 nm was determined using a FLUOstar Omega microplate reader (BMG Labtech). The combination effects were assessed with Bliss independence model and the score is defined as “observed combination effect” minus “expected additive effect”.

Experiment [1] deals with BRCA1 sgRNA-infected (BRCA1 sg) cells. As to the kind of experiment: FIN-induced lipid peroxidation and ferroptosis in BRCA1 sgRNA-infected cells. The note with it: for effect of BRCA1 deficiency on the lipid peroxidation and ferroptosis induced by the compound: BRCA1 sg cells versus control; for effect on RSL3-induced cell death in BRCA1 sg cells: co-treatment with RSL3. Here is the method:
(§2) Knockout of BRCA1, BRCA2, VDAC3, GPX4, ECAD, 53BP1, and NCOA4 in human cell lines was performed using single guide RNAs (sgRNAs) and the CRISPR-Cas9 expression system as previously described. Briefly, sgRNAs were cloned into the lentiviral LentiGuide vector. The sequences of sgRNAs used in the current study are listed in SEQ ID NOs 1-23. LentiGuide clones were transfected into HEK293T cells with a psPAX2 packaging plasmid and pMD2.G-expressing plasmid. Cells were infected with lentivirus with 0.8 μg/mL polybrene and selected with puromycin (1 μg/mL, InvivoGen) or blasticidin (2 μg/mL, InvivoGen), followed by Western blot analysis to confirm target gene deletion. To maintain GPX4 knockout cells, we added 1 μM ferrostatin-1 into the media.
as §1
(§3) Cell death was measured by propidium iodide (Roche) staining using a flow cytometer, as previously described. Briefly, cells were seeded onto 6- or 12-well plates and subsequently treated with indicated agents. For GPX4 knockout cells, ferrostatin-1 was removed from the culture media. Next, cells were collected (including floating dead cells) and stained with 5 μg/mL propidium iodide. The percentage of the propidium iodide-positive dead cells was determined using the flow cytometer BD Accuri C6 (BD Biosciences) or Attune NXT Flow Cytometer (ThermoFisher) with an FL2 detector. A minimum of 5,000 single cells were analyzed per well.
(§4) As previously described C11-BODIPY 581/591 (Invitrogen) was used for lipid peroxidation, MitoPerOx (Abcam) for mitochondrial lipid peroxidation, and CM-H2DCFDA (ThermoFisher) for ROS measurements. Briefly, cells were seeded on 6- or 12-well plates and subsequently treated with indicated agents. After staining with 2.5 μM C11-BODIPY 581/591, 2.5 μM MitoPerOx, or 4 μM CM-H2DCFDA for 20 minutes, cells were analyzed using the flow cytometer BD Accuri C6 (BD Biosciences) or Attune NxT Flow Cytometer (ThermoFisher) with a 488-nm laser on an FL1 detector. A minimum of 5,000 single cells were analyzed per well.

The test system of a further experiment is VDAC3-KO cells. As to the kind of experiment: FIN-induced ferroptosis in VDAC3-KO cells. The note with it: VDAC3 sg cells versus control. As to the method: as §2
Viable cells were measured using Cell Counting Kit-8 (CCK-8, Dojindo) as previously described. Briefly, cells were seeded onto 96-well plates and subsequently treated with indicated agents. […] The absorbance at a wavelength of 450 nm was determined using a FLUOstar Omega microplate reader (BMG Labtech). The combination effects were assessed with Bliss independence model and the score is defined as “observed combination effect” minus “expected additive effect”.
Cell death was measured by propidium iodide (Roche) staining using a flow cytometer, as previously described. […] The percentage of the propidium iodide-positive dead cells was determined using the flow cytometer BD Accuri C6 (BD Biosciences) or Attune NXT Flow Cytometer (ThermoFisher) with an FL2 detector. A minimum of 5,000 single cells were analyzed per well.
As previously described C11-BODIPY 581/591 (Invitrogen) was used for lipid peroxidation, MitoPerOx (Abcam) for mitochondrial lipid peroxidation, and CM-H2DCFDA (ThermoFisher) for ROS measurements. […] After staining with 2.5 μM C11-BODIPY 581/591, 2.5 μM MitoPerOx, or 4 μM CM-H2DCFDA for 20 minutes, cells were analyzed using the flow cytometer BD Accuri C6 (BD Biosciences) or Attune NxT Flow Cytometer (ThermoFisher) with a 488-nm laser on an FL1 detector. A minimum of 5,000 single cells were analyzed per well.

Experiment [2] relates to BRCA2 sgRNA infected HT1080 cells. The experiment can be described thus: FIN sensitivity of BRCA2 sgRNA-infected HT1080 cells. The following applies: BRCA2 sg HT1080 versus control. As to the method: as §2, §1
The test system of experiment [3] is BRCA1-mutant cancer cells (SUM149, HCC1937). As to the kind of experiment: PARPi+GPX4i combination-induced lipid peroxidation and cell death. The following applies: for effect on cell death induced by PARP inhibitor+GPX4 inhibitor combination: BRCA1-mutant cells. As to the method: as §3, §4
The subject of experiment [4] is WT, BRCA1- or VDAC3-deficient cells. The experiment can be described thus: Rescue of Erastin-induced ferroptosis by antioxidants (cell viability). The following applies: for effect on Erastin-induced ferroptosis: wild-type (WT), BRCA1- or VDAC3-deficient cells. Here is the method:
as §1

The next experiment deals with NCOA4. The experiment can be described thus: NCOA4 expression after PARPi treatment (western blotting). The following applies: SUM149 and HCC1937 cells. Here is the method: Cell pellets were lysed using immunoprecipitation lysis buffer (Fisher Scientific) or NP-40 buffer containing complete mini protease inhibitors (Roche). Protein concentrations were detected by a Bicinchoninic Acid Protein Assay (Thermo Scientific) using a FLUOstar Omega microplate reader (BMG Labtech). Immunoprecipitation and Western blot analysis were conducted as previously described. The primary antibodies and concentrations used in the current study included the followed: GPX4 (1:1,000, MAB5457, R&D systems), BRCA1 (1:1,000, 14823, Cell Signaling), BRCA2 (1:1,000, MAB2476-SP, R&D Systems), DHODH (1:1,000, 14877-1-AP, Proteintech), ACSL4 (1:1,000, sc-271800, Santa Cruz), FSP1 (1:1,000, 20886-1-AP, Proteintech), VDAC1 (1:1,000, 66345-1-Ig, Proteintech), VDAC2 (1:1,000, 66388-1-Ig, Proteintech), VDAC3 (1:1,000, 55260-1-AP, Proteintech), SLC7A11 (1:1,000, 12691, Cell Signaling), NCOA4 (1:1,000, 66849, Cell Signaling), vinculin (1:10000; V4505, Sigma), β-actin (1:1,000, 3700, Cell Signaling), LC3B (1:5000, 3868, Cell Signaling), 53BP1 (1:5000, NB100-304, Novus Biologicals), E-Cadherin (1:1000, 3195, Cell Signaling), and tubulin (1:5000, 2144, Cell Signaling).

Where [5] appears, read: BRCA1 sgRNA infected SKOV3 cells.

With `CC(=O)N[C@@H](CS)C(=O)O` [NAC, N-acetyl-1-cysteine], the “effect on PARP inhibitor-induced NRF2 and GPX4 induction” value in the experiment with NRF2 and GPX4 (BRCA1-WT HS578T cells) is given as “abolished”. In the experiment with SUM149 and HS578T cells (BRCA1-deficient SUM149 cells), the “effect on PARP inhibitor-induced cell killing” value is recorded as “partially restored; also recorded: suppressed”.

Regarding `CC(C)Oc1ccc(C(=O)Cn2ccnc2)cc1-n1c(CN2CCN(C(=O)COc3ccc(Cl)cc3)CC2)nc2ccccc2c1=O` [IKE, imidazole ketone erastin], the “effect of BRCA1 deficiency on the lipid peroxidation and ferroptosis induced by the compound” value in experiment [1] is given as “remarkably repressed”. The “effect of VDAC3 deletion on the lipid peroxidation, ferroptosis or sensitivity induced by the compound” value in the experiment with VDAC3-KO cells was “largely abolished”. Moreover, the “effect of BRCA2 depletion on cellular sensitivity to the compound” value in experiment [2] is reported as “did not affect”. Turning to Z-VAD, the “effect on RSL3-induced cell death in BRCA1 sg cells” value in experiment [1] is given as “not”. In addition, the “effect on cell death induced by PARP inhibitor+GPX4 inhibitor combination” value in experiment [3] is given as “not”. In the case of `CC(C)(C)c1cc(O)ccc1O` [tert-butylhydroquinone], in the experiment with NRF2 and GPX4, the GPX4 levels entry is listed as “increased GPX4 levels”. Besides, the “NRF2 and GPX4 levels” value with NRF2 and GPX4 (setting [5]) was “induced both NRF2 and GPX4 levels”. Also, the “effect on RSL3-induced ferroptosis” value in experiment [1] (setting [5]) was “rendered these cells resistant to RSL3-induced ferroptosis”. The “effect on ferroptosis induced by olaparib+RSL3 combination” value in experiment [3] (SUM149 cells) is given as “suppressed”. For the compound `CC(C)(C)OO` [TBH, tert-butyl hydroperoxide], the “cell death in BRCA1-deficient versus BRCA1-proficient cells” value in the experiment with SUM149 and HS578T cells (SUM149 or BRCA1 sg HS578T cells compared with HS578T cells) is “induced more cell death”. Turning to `CC1(C)CC(NC(=O)C[P+](c2ccccc2)(c2ccccc2)c2ccccc2)CC(C)(C)N1[O]` [MitoTEMPO], the “effect on cell viability of Erastin-treated cells” value is reported as “did not provide a protective effect” in experiment [4] (BRCA1- or VDAC3-deficient counterparts) and “largely restored cell viability” in experiment [4] (WT cells). With `C[S+]([O-])CCCCN=C=S` (centres unmarked) [sulforaphane], the GPX4 levels result in the experiment on NRF2 and GPX4 is “increased GPX4 levels”. Regarding `O=C(O)c1cc(/N=N/c2ccc(S(=O)(=O)Nc3ccccn3)cc2)ccc1O` [sulfasalazine], in experiment [1], the “effect of BRCA1 deficiency on the lipid peroxidation and ferroptosis induced by the compound” value is reported as “did not affect”. Moreover, the “effect of VDAC3 deletion on the lipid peroxidation, ferroptosis or sensitivity induced by the compound” value with VDAC3-KO cells was “did not affect”. For `CC1(C)CCCC(C)(C)N1[O]` [TEMPO], the “effect on Erastin-induced ferroptosis” value in experiment [4] was “completely suppressed”. On to `CCOC(=O)c1ccc(NC2CCCCC2)c(N)c1` [ferrostatin-1], for which, in experiment [1], the “effect on RSL3-induced cell death in BRCA1 sg cells” value was “abolished”. The “effect on cell death induced by PARP inhibitor+GPX4 inhibitor combination” value in experiment [3] is “largely abolished”. Also, the “effect on Erastin-induced ferroptosis” value in experiment [4] is “completely suppressed”. In the case of `NC(=O)c1cccc2cn(-c3ccc([C@@H]4CCCNC4)cc3)nc12` [niraparib], in the experiment on NCOA4, the NCOA4 expression entry is given as “significantly induced”. As to `CN1C(=O)NC(Cc2c[nH]c3c(Cl)cccc23)C1=O` (centres unmarked) [Nec-1s], the “effect on cell death induced by PARP inhibitor+GPX4 inhibitor combination” value in experiment [3] is on record as “not”.
